Common to all, as to experiment: NCI anticancer screen, dose series, 48 h
The test system of assay [1] is SF-268.
The test system of assay [2] is EKVX.
In assay [3] the test system is UACC-257.
Assay [4] relates to MCF7.
Assay [5] relates to KM12.
For assay [6], the system named is NCI/ADR-RES.
Assay [7] deals with OVCAR-4.
For assay [8], the system named is OVCAR-5.
Assay [9] relates to A498.
Assay [10] relates to COLO 205.
Assay [11] deals with ACHN.
The subject of assay [12] is NCI-H226.
The subject of assay [13] is NCI-H23.
Assay [14] concerns Malme-3M.
The test system of assay [15] is IGROV-1.
Assay [16] relates to A549.
The subject of assay [17] is SK-OV-3.
The test system of assay [18] is UACC-62.
In assay [19] the test system is CCRF-CEM.
Assay [20] concerns OVCAR-8.

Results on ten molecules are retold here after ChEMBL document CHEMBL1201862, “PubChem BioAssay data set” (2004).

Molecules are shown by their SMILES.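 All cell lines were grown in 96-well plates and treated with compound for 48 hours. GI50 is the concentration that inhibits growth by half.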 Active and inactive are the calls of the source. No stated cut-off is given here; in the data, active = GI50 up to about 1.1 µM and inactive = higher. A value given as a limit tells only on which side of the number the result lay.

In the case of `O=S(=O)(CC#CCS(=O)(=O)c1ccccc1)c1ccccc1`, the GI50 in assay [1] is 4.35 µM (inactive); in assay [2] it was 5.09 µM (inactive); in assay [3], 4.32 µM (inactive); in assay [4], 1.99 µM (inactive); in [5] it was 12.4 µM (inactive); in assay [6], 3.72 µM (inactive). The GI50 is 1.84 µM (inactive) in assay [7]; 4.63 µM (inactive) in [8]; 16.1 µM (inactive) in [9]; 1.95 µM (inactive) in [10]; 1.79 µM (inactive) in assay [11]; 14.6 µM (inactive) in assay [12]. The GI50 in assay [13] is 2.98 µM (inactive); in assay [14], 1.9 µM (inactive); in [15] it was 1.44 µM (inactive); in [16] it was 19.1 µM (inactive); in assay [17] it was 13.4 µM (inactive); in assay [18] it was 3.55 µM (inactive). Further, the GI50 in assay [19] was 0.0982 µM (active); in assay [20], 1.76 µM (inactive).
Take `NC1C/C(=N\O)c2c(I)sc(I)c21` (stereo not drawn): the GI50 in assay [1] was 17.7 µM (inactive); in [2], 19 µM (inactive); in assay [3] it was 16 µM (inactive); in assay [4], 7.31 µM (inactive); in assay [5], 13.1 µM (inactive); in assay [6] it was 18.4 µM (inactive). Besides, the GI50 in [7] was 22 µM (inactive); in [8] it was 15.7 µM (inactive); in [9], 27 µM (inactive); in [10], 19.6 µM (inactive); in [11] it was 18.7 µM (inactive); in assay [12], 18.4 µM (inactive). Also, the GI50 in [13] is 14.7 µM (inactive); in [14], 15.7 µM (inactive); in assay [15], 15.7 µM (inactive); in assay [16], 16 µM (inactive); in assay [17], 16.4 µM (inactive); in assay [18] it was 17.3 µM (inactive). In addition, the GI50 in assay [19] is 2.44 µM (inactive); in assay [20], 13.4 µM (inactive).
As for `C(=C\c1ccccc1)/COc1ccccc1C(N1CCOCC1)n1nc2ccccc2n1` (stereo not drawn), the GI50 is 5.71 µM (inactive) in [1]; 21.2 µM (inactive) in [2]; 5.51 µM (inactive) in assay [3]; 1.4 µM (inactive) in [4]; 5.26 µM (inactive) in assay [5]; 3.69 µM (inactive) in [6]. In addition, the GI50 is 12.2 µM (inactive) in [7]; 14.1 µM (inactive) in [8]; 38.1 µM (inactive) in assay [9]; 19.9 µM (inactive) in assay [10]; 7.98 µM (inactive) in assay [11]; 7.28 µM (inactive) in [12]. For the same molecule, the GI50 in assay [13] was 5.35 µM (inactive); in assay [14], 2.99 µM (inactive); in assay [15], 7.98 µM (inactive); in assay [16], 41 µM (inactive); in assay [17] it was 32.4 µM (inactive); in [18], 3 µM (inactive). Moreover, the figures for the GI50 in [19] and in assay [20] were 1.88 µM (inactive) and 3.5 µM (inactive), respectively.
As to `COc1cc2c(c(OC)c1OC)-c1ccc(SC)c(=O)cc1[C@@H](O)CC2`, the GI50 in [1] is 0.00128 µM (active); in assay [2] it was 0.000748 µM (active); in assay [3], 0.0252 µM (active); in assay [4], 0.000386 µM (active); in [5], 0.000234 µM (active); in [6], 0.00253 µM (active). The GI50 was > 1 µM (active) in assay [7]; 0.0069 µM (active) in [8]; 0.0305 µM (active) in [9]; 0.000408 µM (active) in assay [10]; 0.0011 µM (active) in assay [11]; 0.000703 µM (active) in assay [12]. Further, the GI50 in assay [13] is 0.000803 µM (active); in [14], 0.00021 µM (active); in assay [15] it was 0.00067 µM (active); in assay [16], 0.000895 µM (active); in assay [17], 0.000392 µM (active); in assay [18] it was 0.000469 µM (active). Moreover, the GI50 in [19] was 0.00031 µM (active); in assay [20], 0.00107 µM (active).
As for `COc1ccc(P2(=S)SP(=S)(c3ccc(Cl)cc3)S2)cc1` (stereo not drawn), the GI50 in assay [1], in [2], in assay [3], in [4], in assay [5] and in [6] was > 100 µM (inactive) each time. The GI50 in [7], in assay [8], in [9], in assay [10], in assay [11] and in [12] was > 100 µM (inactive) each time. Besides, the GI50 in assay [13], in assay [14], in assay [15], in assay [16], in assay [17] and in assay [18] was > 100 µM (inactive) throughout. Moreover, the GI50 in assay [19] and in [20] was > 100 µM (inactive) in each case.
`CCOC(=O)c1ccc(Nc2cnc3ccc(C(F)(F)F)cc3n2)cc1`: the GI50 is 12.6 µM (inactive) in assay [1]; 24.6 µM (inactive) in [2]; 18.4 µM (inactive) in [3]; 19.1 µM (inactive) in [4]; 13.1 µM (inactive) in assay [5]; 12.8 µM (inactive) in [6]. Besides, the GI50 in assay [7] was 11.6 µM (inactive); in assay [8] it was 24.9 µM (inactive); in [9], 16.6 µM (inactive); in assay [10], 15.3 µM (inactive); in assay [11], 15.2 µM (inactive); in assay [12] it was 16.4 µM (inactive). Moreover, the GI50 was 15 µM (inactive) in assay [13]; 21.4 µM (inactive) in assay [14]; 15 µM (inactive) in assay [15]; 14.5 µM (inactive) in assay [16]; 35.9 µM (inactive) in assay [17]; 13.6 µM (inactive) in assay [18]. Moreover, the GI50 in [19] was 12.1 µM (inactive); in assay [20], 12.8 µM (inactive).
For `CC(=O)Nc1ccc2c3c(cc(O)c2c1)N(C(=O)CCCC(=O)N1CC(CCl)c2c1cc(O)c1cc(NC(C)=O)ccc21)CC3CCl` (stereo not drawn), the GI50 was < 0.01 µM (active) in assay [1]; 0.0423 µM (active) in assay [2]; 0.0114 µM (active) in assay [3]; < 0.01 µM (active) in assay [4]; 0.0132 µM (active) in [5]; 0.0828 µM (active) in [6]. The GI50 in [7] was 0.0238 µM (active); in assay [8] it was 0.0198 µM (active); in assay [9], < 0.01 µM (active); in [10], 0.0154 µM (active); in [11], < 0.01 µM (active); in assay [12], < 0.01 µM (active). The GI50 in [13] is < 0.01 µM (active); in assay [14], 0.01 µM (active); in assay [15] it was 0.0102 µM (active); in [16] it was < 0.01 µM (active); in assay [17], < 0.011 µM (active); in [18], < 0.01 µM (active). Besides, the GI50 in [19] and in assay [20] was < 0.01 µM (active) in each case.
For `C#CCNC(CSSCC(N)C(=O)O)C(=O)O` (stereo not drawn), the GI50 in assay [1], in [2], in assay [3], in assay [4], in assay [5] and in [6] was > 100 µM (inactive) each time. The GI50 in assay [7], in assay [8], in [9], in assay [10], in assay [11] and in [12] was > 100 µM (inactive) throughout. For the same molecule, the GI50 in assay [13], in assay [14], in [15], in assay [16], in assay [17] and in assay [18] was > 100 µM (inactive) throughout. In addition, the GI50 in [19] and in assay [20] was > 100 µM (inactive) in each case.
On to `CSC1=N/C(=C\c2ccc(C)cc2)C(=O)N1CN1CCOCC1`, for which the GI50 in assay [1] was 47.6 µM (inactive); in [2] it was 47.4 µM (inactive); in [4], 31.2 µM (inactive); in assay [5], 91.8 µM (inactive); in [6], 19.5 µM (inactive); in [7], 0.622 µM (active). The GI50 is > 100 µM (inactive) in assay [8]; 98.2 µM (inactive) in [9]; 42.7 µM (inactive) in assay [10]; 35.4 µM (inactive) in assay [11]; 31.3 µM (inactive) in [12]; 92.7 µM (inactive) in assay [13]. Moreover, the GI50 in [14] is > 100 µM (inactive); in assay [15] it was 28.2 µM (inactive); in assay [16] it was 92.3 µM (inactive); in assay [17], > 100 µM (inactive); in assay [18], 93.3 µM (inactive); in assay [19], 41.4 µM (inactive). Also, the GI50 in assay [20] was 45.6 µM (inactive).
On to `O=NN(CCCl)C(=O)N[C@H]1CC[C@@H](CC(=O)O)CC1`, for which the GI50 is 33 µM (inactive) in assay [1]; > 100 µM (inactive) in [2]; > 100 µM (inactive) in assay [3]; > 100 µM (inactive) in assay [4]; > 100 µM (inactive) in [5]; > 100 µM (inactive) in [6]. Further, the GI50 in assay [7], in [8], in assay [9], in [10], in [12] and in assay [13] was > 100 µM (inactive) in each case. For the same molecule, the GI50 in assay [14] was > 100 µM (inactive); in assay [15] it was > 100 µM (inactive); in assay [16], > 100 µM (inactive); in assay [17] it was > 100 µM (inactive); in assay [18], 35.2 µM (inactive); in [19] it was 28.6 µM (inactive). In addition, the GI50 in [20] was > 100 µM (inactive).
